Several values for one entry are separate records, joined by “and”; a condition that tells them apart may be missing. Equal values may be shown once. Blank lines part the entries; values can stand above or below the compound they belong to.
Key:
[1] = Particle size distribution (X50, X90) before and after HFA-LabRAM media milling, […] particle size analyzer; format: physicochemical; conditions: for PSD after HFA Milling X50 / PSD after HFA Milling X90: 80% power; for particle size (X50) prior to HFA-based RAM milling: unmilled; for X50 after RAM-milling: grades ML001 and SV003
Protocol: In a typical RAM based media milling process (see FIG. 1), API is added to a glass bottle along with Yttria zirconia (YTZ, diameters ranging from about 0.1 to about 2 mm) beads. Preferred bead sizes are from about 0.05 to about 5 mm. Another preferred bead size is from about 0.1 to about 2 mm. Other components that can be added to the API-bead mixture include stabilizers and surfactants that can augment the milling process. The ratio of the beads to that of the formulation components can be varied to suit the needs of particle size requirements. Particularly preferred ratios of beads to formulation components are from 40:1, 20:1, 15:1, 10:1 and 5:1. The bottle is crimp sealed and filled with appropriate amounts of either HFA227 or HFA134a (or a combination of both at varying ratios). The bottle is then loaded onto a RAM device and milled for a specified duration of time and at a specified power. Milling times include between about 5 minutes to about 300 minutes. Preferred milling times are from about 30 minutes to about 200 minutes and 60 minutes to about 120 minutes. Power includes about 10% to about 100% power. Preferred power range is about 40% to about 100%. Further, preferred power range is about 75% to about 100%. In most cases, the process can proceed to completion without stoppage. However, because of the ease and simplicity of the process, the process flow can be readily altered by stopping the media milling at intermittent time points for a known period of time before restarting the process again. This may be performed to cool the contents of the bottle at regular intervals. After completion, the bottle is allowed to revert to room temperature (if needed) to rapidly vent the HFA. After the process is finished the contents of the bottle (API, any excipients and/or additives, and the beads) are then added to a sieve of appropriate mesh size to separate the beads and the API. The milled API is collected and stored at 0% RH (in a nitrogen glove box) for further use.
GP was milled utilizing LabRAM in both HFA134a and HFA227. The milling was accomplished at different parameters of solids ratio, milling duration and power. YTZ beads ([…]) were utilized.
Lactose is an excipient that is FDA approved and is utilized as a carrier in dry powder inhalers. In one variation of the milling study, β-lactose (anhydrous) purchased from sigma-aldrich was subjected to HFA (HFA227) based media milling using LabRAM at a preset power of 80% and for a duration of 70 minutes. The ratio of YTZ beads ([…]) to β-lactose was maintained at 20:1. Particle size (X50) of β-lactose prior to HFA-based RAM milling was 153.6±7.4 μm. Upon subjecting the unmilled lactose to RAM-milling under the aforementioned conditions, the particle size (X50) of β-lactose was 3.47±0.01 μm.

[2] = DSC thermograms of unmilled and HFA-LabRAM milled material (solid state); format: physicochemical; conditions: milled versus unmilled material
From the text: With respect to the examples below, the milled API was subject to DSC and the thermograms compared to that of the neat unmilled API. The data from the thermograms clearly indicate that the RAM based HFA-milled API maintains its crystalline structure (FIG. 2B). It was also confirmed that the RAM milling process minimized the undesirable amorphous material generation during milling.

[3] = HFA227, 60 mins, API:Bead ratio (w/w) 20, in µm (unit assumed)
[4] = HFA227, 86 min, API:Bead ratio (w/w) 20, in µm (unit assumed)
[5] = HFA227, 90 min, 5 min stop @45, 10 min stop, 90% power for additional 3 mins, API:Bead ratio (w/w) 20, in µm (unit assumed)
[6] = HFA227, 90 min, 5 min stop @45, API:Bead ratio (w/w) 10, in µm (unit assumed)
[7] = HFA227, 105 mins, API:Bead ratio (w/w) 20, in µm (unit assumed)
[8] = unmilled GP, in µm (unit assumed)

- X50 after LabRAM milling, all cases ([1]; HFA134a and HFA227, different solids ratio, milling duration and power, YTZ beads): less than 3 μm
- average X50 after LabRAM milling ([1]; HFA134a, increased solids ratio): 1.5 μm
- PSD after HFA Milling X50 [1, 3]: 3.49 ± 0.02
- PSD after HFA Milling X90 [1, 3]: 15.93 ± 0.14
- PSD after HFA Milling X50 [1, 4]: 1.7
- PSD after HFA Milling X90 [1, 4]: 4.53 ± 0.21
- PSD after HFA Milling X50 [1, 5]: 1.37 ± 0.13
- PSD after HFA Milling X90 [1, 5]: 3.67 ± 0.03
- PSD after HFA Milling X50 [1, 6]: 1.7 and 1.53 ± 0.06
- PSD after HFA Milling X90 [1, 6]: 3.87 ± 0.12 and 3.67 ± 0.06
- PSD after HFA Milling X50 [1, 7]: 2.62 ± .01
- PSD after HFA Milling X90 [1, 7]: 9.83 ± 0.01
- particle size (X50) prior to HFA-based RAM milling [1]: ca. 51 μm
- solid state after HFA-LabRAM milling (DSC) [2]: no change in the polymorphic state
Compound: C[N+]1(C)CCC(OC(=O)C(O)(c2ccccc2)C2CCCC2)C1 (centres unmarked) [GP, glycopyrrolate bromide]
- PSD before HFA Milling X50 [1, 8]: 52.77 ± 1.55 and 52.77 ± 1.56 and 52.77 ± 1.57 and 52.77 ± 1.54
- PSD before HFA Milling X90 [1, 8]: 134.7 ± 9.10 and 134.7 ± 9.11 and 134.7 ± 9.12 and 134.7 ± 9.9

Compound: O.OC[C@H]1O[C@@H](O[C@H]2[C@H](O)[C@@H](O)C(O)O[C@@H]2CO)[C@H](O)[C@@H](O)[C@H]1O (some centres unmarked) [Lactose monohydrate]
- X50 after RAM-milling ([1]; HFA134a, similar conditions): 1.9 μm
- X50 after RAM-milling ([1]; HFA227): less than 3 μm

- particle size (X50) at start of storage (75% RH and 25° C. study, initial value): 1.54 μm
- particle size (X50) after storage (75% RH and 25° C., within a span of 24 h): 1.78 μm
- increase in PSD (75% RH and 40° C., within 20 h): 0.5 μm
Compound: C[N+]1(C)CCC(OC(=O)C(O)(c2ccccc2)C2CCCC2)C1.[Br-] (centres unmarked) [HFA-LabRAM milled GP, glycopyrrolate bromide]

- particle size (X50) of the recovered product ([1]; HFA134a, bead to lactose ratio 40:1, 60 minute duration): 2.3 μm
- particle size (X50) after RAM-milling ([1]; HFA227, power 80%, 70 minutes, YTZ beads to β-lactose 20:1): 3.47±0.01 μm
- particle size (X50) prior to HFA-based RAM milling [1]: 153.6±7.4 μm
- solid state after HFA-LabRAM milling (DSC) [2]: crystalline
- solid state after HFA-LabRAM milling (DSC) ([2]; listed as lactose): no glass transition
Compound: OC[C@H]1O[C@@H](O[C@H]2[C@H](O)[C@@H](O)[C@H](O)O[C@@H]2CO)[C@H](O)[C@@H](O)[C@H]1O [β-lactose]

- time within which X50 / particle size doubles (75% RH and 40° C.): ≤ 6 h
- particle size shown at 24 h (visual observation) (75% RH and 40° C., 24 h, visual observation, […]): 10 μm
- increase in the size of the API (75% RH and 40° C., within 24 h): 100 fold
Compound: C[N+]1(C)CCC(OC(=O)C(O)(c2ccccc2)C2CCCC2)C1.[Br-] (centres unmarked) [jet milled GP, glycopyrrolate bromide]
